From patent US20110071197A1, “BIS-ARYL COMPOUNDS FOR USE AS MEDICAMENTS” (priority 2008, published 2011)

Target: T1, Recombinant human LTC4 synthase (Homo sapiens, UniProt Q16873)
T1 construct: made in house; host or cells: Pichia pastoris
T1 sequence (Q16873 1-150): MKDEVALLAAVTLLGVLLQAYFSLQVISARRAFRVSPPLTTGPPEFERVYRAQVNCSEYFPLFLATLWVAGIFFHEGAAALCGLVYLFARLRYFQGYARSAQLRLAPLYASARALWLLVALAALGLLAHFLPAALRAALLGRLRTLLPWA
Experiment: LTC4 synthase in vitro assay (HTRF detection of LTC4)
Type: biochemical
Conditions: compound concentration 3 μM; HTRF method
Method in brief: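 Pichia-expressed recombinant human LTC4 synthase at 0.5 μg/ml total protein in PBS pH 7.4 with 5 mM GSH, preincubated 10 min at RT with inhibitor (10 μM final). LTA4 (2.5 μM final) was then added for 5 min at RT. LTC4 formed was read by HTRF.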

Molecule	inhibition at 3 µM [%]
CCCCc1ccc(C(=O)Nc2ccc(Oc3ccc(NC(=O)c4ccccc4)cc3)cc2C(=O)O)cc1 [8:8, 5-(4-benzoylaminophenoxy)-2-(4-butylbenzoylamino)benzoic acid]	89
Cc1nc(C(F)(F)F)ccc1C(=O)Nc1ccc(Oc2ccc(NC(=O)c3ccc(C(F)(F)F)cc3)c(C(=O)O)c2)cc1 [8:5, 5-[4-((2-methyl-6-(trifluoro-methyl)-pyridine-3-carbonyl)-amino)-phenoxy]-2-(4-(trifluoro-methyl)-benzoylamino)-benzoic acid]	83

Same assay, conditions: total concentration of title compound in the assay 10 μM; HTRF method

Molecule	inhibition at 10 µM [%]	% inh. [%]
CCCCc1ccc(C(=O)Nc2cccc(Oc3ccc(NC(=O)c4c(F)cccc4F)c(C(=O)O)c3)c2)cc1 [10:1, 5-[(3-(4-(1-butyl)benzoylamino)-phenoxy)]-2-(2,6-difluorobenzoyl-amino)benzoic acid]	98	–
CCCCc1ccc(C(=O)Nc2ccc(Oc3ccc(Nc4ccc(F)cc4)cc3)cc2C(=O)O)cc1 [12:2, 5-(4-(4-fluorophenylamino)-phenoxy)-2-(4-butylbenz-amido)benzoic acid]	–	94
O=C(O)c1cc(Oc2cccc(NCc3cccc(Cl)c3F)c2)ccc1NS(=O)(=O)c1ccc(Cl)cc1Cl [23:5, 5-[3-(3-Chloro-2-fluorobenzylamino)-phenoxy]-2-(2,4-dichlorobenzene-sulfonylamino)benzoic acid]	98	–
CC(C)Oc1ccc(C(=O)Nc2ccc(Oc3ccc(N(C)C(=O)c4ccc(C(F)(F)F)cc4)cc3)cc2C(=O)O)cc1 [9:4, 5-(4-((N-methyl)-4-trifluoromethyl-benzamido)phenoxy)-2-(4-isopropoxy-benzamido)benzoic acid]	99	–
CCCCc1ccc(C(=O)Nc2ccc(Oc3ccc(N(C(=O)c4ccc(CCCC)cc4)c4ccc(F)cc4)cc3)cc2C(=O)O)cc1 [12:3, 5-(4-((N-4-fluorophenyl)4-butylbenzamido)phenoxy)-2-(4-butylbenzamido)benzoic acid]	83	–
CCCCc1ccc(S(=O)(=O)N(C)c2ccc(Oc3ccc(NC(=O)c4ccc(Cl)cc4Cl)c(C(=O)O)c3)cc2)cc1 [11:7, 5-{4-[(4-butylbenzenesulfonyl)-methylamino]phenoxy}-2-(2,4-dichlorobenzoylamino)benzoic acid]	100	–
Cc1nc(C(F)(F)F)ccc1C(=O)Nc1ccc(Oc2ccc(NC(=O)c3ccc(OC(C)C)cc3)cc2)cc1C(=O)O [8:14, 5-[4-(4-isopropoxybenzoyl-amino)phenoxy]-2-[(2-methyl-6-trifluoromethylpyridine-3-carbonyl)amino]benzoic acid]	100	–
CCCCOc1ccc(S(=O)(=O)Nc2ccc(Oc3ccc(NC(=O)c4ccccc4)cc3)cc2CC(=O)O)cc1 [17:7, [5-(4-benzoylamino-phenoxy)-2-(4-butoxy-benzenesulfonyl-amino)-phenyl]-acetic acid]	95	–
2-(2,3-dichlorobenzylamino)-5-{4-[(4-methoxybenzene-sulfonyl)methyl-amino]-phenoxy}benzoic acid [Example 11:12]	–	92
O=C(Nc1ccc(Oc2ccc(NC(=O)c3ccc([N+](=O)[O-])cc3)c(C(=O)O)c2)cc1C(=O)O)c1ccc([N+](=O)[O-])cc1 [4:3, 5-[3-carboxy-4-(4-nitrobenzamido)phenyloxy]-2-(4-nitrobenzamido)benzoic acid]	97	–
O=C(O)c1cc(Sc2ccc(Nc3ccc(F)c(F)c3)cc2)ccc1Nc1ccc(F)c(F)c1 [Example 14:2, 2-(3,4-difluorophenylamino)-5-[4-(3,4-difluoro-phenylamino)-phenylsulfanyl]-benzoic acid]	99	–
CCCCc1ccc(C(=O)Nc2ccc(Oc3ccc(NC(=O)c4ccc(F)cc4Cl)c(C(=O)O)c3)cc2C(=O)O)cc1 [2:8, 5-[3-carboxy-4-(2-chloro-4-fluorobenz-amido)-phenyloxy]-2-(4-butylbenz-amido)benzoic acid]	–	100
CCCCOc1ccc(S(=O)(=O)Nc2ccc(Oc3cccc(S(=O)(=O)Nc4ccc(F)c(F)c4)c3)cc2C(=O)O)cc1 [19:2, 2-(4-Butoxy-benzenesulfonylamino)-5-[3-(3,4-difluoro-phenylsufamoyl)-phenoxy]-benzoic acid]	–	100
CC(C)Oc1ccc(C(=O)Nc2ccc(Oc3ccc(NC(=O)c4cc(Cl)ccc4O)c(CC(=O)O)c3)cc2C(=O)O)cc1 [6:3, 5-[3-carboxymethyl-4-(5-chloro-2-hydroxybenzoylamino)phenoxy]-2-(4-isopropoxybenzoyl-amino)benzoic acid]	100	–
COc1ccc(S(=O)(=O)N(C)c2ccc(Oc3ccc(NC(=O)c4ccccc4C(F)(F)F)c(C(=O)O)c3)cc2)cc1 [11:18, 5-{4-[(4-Methoxy-benzenesulfonyl)-methyl-amino]-phenoxy}-2-(2-trifluoromethyl-benzoylamino)-benzoic acid]	96	–
CC(C)(C)c1ccc(C(=O)Nc2ccc(Oc3ccc(NC(=O)c4ccc(Cl)cc4Cl)c(C(=O)O)c3)cc2)cc1 [Example 8:1, 5-(4-(4-tert-butylbenzamido)-phenoxy)-2-(2,4-dichlorobenz-amido)benzoic acid]	–	100

Molecule	inhibition at 10 µM [%]	% inh. [%]
O=C(Nc1ccc(Oc2ccc(NC(=O)c3cc([N+](=O)[O-])ccc3Cl)c(C(=O)O)c2)cc1C(=O)O)c1cccc(Cl)c1 [2:4, 5-[3-carboxy-4-(3-nitro-6-chlorobenz-amido)-phenyloxy]-2-(3-chlorobenz-amido)benzoic acid]	–	99
CCCCOc1ccc(S(=O)(=O)Nc2ccc(Oc3cccc(C(=O)NS(=O)(=O)c4ccc(F)cc4)c3)cc2C(=O)OC(C)(C)C)cc1 [20:4, 2-(4-Butoxy-benzenesulfonylamino)-5-[3-(4-fluoro-benzenesulfonylamino-carbonyl)-phenoxy]-benzoic acid t-butyl ester]	99	–
CCCCc1ccc(C(=O)Nc2ccc(Oc3ccc(NC(=O)c4ccc(CCCC)cc4)c(C(=O)O)c3)cc2C(=O)O)cc1 [4:1, 5-[3-carboxy-4-(4-butyl-benzamido)phenyloxy]-2-(4-butylbenzamido)benzoic acid]	99	–
Cc1nc(C(F)(F)F)ccc1C(=O)Nc1ccc(Oc2ccc(NS(=O)(=O)c3ccc(F)c(Cl)c3)c(C(=O)O)c2)cc1 [21:1, 2-(3-Chloro-4-fluoro-benzenesulfonylamino)-5-{4-[(2-methyl-6-trifluoromethyl-pyridine-3-carbonyl)-amino]-phenoxy}-benzoic acid]	100	–
O=C(Nc1ccc(Oc2ccc(NC(=O)c3cc(Cl)ccc3F)c(C(=O)O)c2)cc1C(=O)O)c1cccc(Cl)c1 [2:2, 5-[3-carboxy-4-(3-chloro-6-fluorobenz-amido)phenyloxy]-2-(3-chlorobenz-amido)benzoic acid]	–	100
O=C(Nc1ccc(S(=O)(=O)c2ccc(NC(=O)c3ccc(C(F)(F)F)cc3)c(C(=O)O)c2)cc1C(=O)O)c1ccc(C(F)(F)F)cc1 [16:2, 2-(4-(trifluoromethyl)benz-amido)-5-((4-(4-(trifluoro-methyl)benzamido)-3-carboxyphenyl)sulfonyl)-benzoic acid]	–	97
O=C(NS(=O)(=O)c1ccc(F)c(F)c1)c1cccc(Oc2ccc(Nc3ccc(Cl)cc3)c(C(=O)O)c2)c1 [20:2, 2-(4-Chloro-phenylamino)-5-[3-(3,4-difluoro-benzenesulfonylamino-carbonyl)-phenoxy]-benzoic acid]	96	–
COc1ccc(S(=O)(=O)N(C)c2ccc(Oc3ccc(NC(=O)c4c(F)cccc4F)c(C(=O)O)c3)cc2)cc1 [11:16, 2-(2,6-Difluoro-benzoylamino)-5-{4-[(4-methoxy-benzenesulfonyl)-methyl-amino]-phenoxy}-benzoic acid]	94	–
CC(C)(C)c1ccc(C(=O)Nc2ccc(Oc3ccc(NC(=O)c4ccc(Cl)nc4Cl)c(C(=O)O)c3)cc2)cc1 [8:20, 5-[4-(4-tert-Butylbenzoyl-amino)phenoxy]-2-[(2,6-di-chloropyridine-3-carbonyl)-amino]benzoic acid]	96	–
CCCCc1ccc(C(=O)Nc2ccc(Oc3ccc(NC(=O)c4ccc(Cl)cc4Cl)c(CC(=O)O)c3)cc2)cc1 [17:5, [5-[4-(4-butyl-benzoylamino)-phenoxy]-2-(2,4-dichloro-benzoylamino)-phenyl]-acetic acid]	94	–
CCCCc1ccc(C(=O)Nc2ccc(Oc3ccc(NC(=O)c4ccc(C(F)(F)F)cc4)c(C(=O)O)c3)cc2)cc1 [8:4, 5-[4-(4-(butyl)benzoylamino)-phenoxy]-2-(4-trifluoromethyl-benzoylamino)benzoic acid]	89	–
O=C(O)c1cc(Oc2ccc(Nc3ccc(F)c(F)c3)cn2)ccc1Nc1ccc(F)c(F)c1 [Example 33:1, 2-(3,4-Difluorophenylamino)-5-[5-(3,4-difluorophenylamino)pyridin-2-yloxy]-benzoic acid]	97	–
Cc1c(Cl)cccc1S(=O)(=O)Nc1ccc(Oc2ccc(Nc3ccc(F)c(F)c3)c(C(=O)O)c2)cn1 [Example 33:2, 5-(6-(3-Chloro-2-methylphenylsulfonamido)pyridin-3-yloxy)-2-(3,4-difluorophenylamino)benzoic acid]	99	–
O=C(O)Cc1cc(Oc2ccc(NC(=O)c3ccccc3)cc2)ccc1NC(=O)c1cccc(Cl)c1Cl [17:2, [5-(4-benzoylamino-phenoxy)-2-(2,3-dichloro-benzoylamino)-phenyl]-acetic acid]	99	–
CCCCN(c1ccc(Oc2ccc(Nc3ccc(F)c(F)c3)c(C(=O)O)c2)cc1)c1ccc(F)c(F)c1 [24:1, 5-{4-[n-Butyl-(3,4-difluorophenyl)-amino]phenoxy}-2-(3,4-difluoro-phenylamino)benzoic acid]	93	–
